Test results from patent publication US20220218852A1, “NOVEL RADIOLABELLED CXCR4-TARGETING COMPOUNDS FOR DIAGNOSIS AND THERAPY” (PROVINCIAL HEALTH SERVICES AUTHORITY, priority 2019, published 2022).
Positions of bridges follow the written chain, without caps; N, C: chain ends. Non-standard residues stand in square brackets, D forms with d. Residues, ends and D or L forms follow the SMILES beside them. Groups on a side chain read outwards from the residue. *: point of attachment. DOTA = O=C(O)CN1CCN(CC(=O)O)CCN(CC(=O)*)CCN(CC(=O)O)CC1; 2Nal = N[C@@H](Cc1ccc2ccccc2c1)C(=O)O; Lys(iPr) = CC(C)NCCCC[C@H](N)C(=O)O

Assays:
Format in all cases: in vivo
[1] = Biodistribution in Z138 tumor-bearing mice; details: male, NOD.Cg-Rag1tm1Mom Il2rgtm1Wjl/SzJ (NRG), mouse, spleen, iv, total radioactivity, read-out: Biodistribution Spleen
Method: (§1) For Daudi, Z138, GRANTA519 and Jeko1 xenografts, male NOD.Cg-Rag1^tm1MomII2rg^tm1Wjl/SzJ (NRG) mice were subcutaneously inoculated on the left flank with 5×10^6 cells (100 μL; 1:1 ratio of PBS/Matrigel) and tumors were grown to a size of 200-500 mm^3. For PC-3 xenografts, male NOD.Cg-Rag1^tm1MomII2rg^tm1Wjl/SzJ (NRG) mice were subcutaneously inoculated on the left flank with 5×10^6 PC-3 cells (100 μL; 1:1 ratio of PBS/Matrigel) and tumors were grown to a size of 200-400 mm^3.
(§2) The mice were euthanized via CO2 inhalation while anesthetized with isoflurane. Tissues were harvested, washed in PBS, blotted dry, weighed, and measured on a Hidex AMG Automatic Gamma Counter.

[2] = system: GRANTA519 mantle cell lymphoma xenografts; assay: Biodistribution in GRANTA519 tumor-bearing mice
Method: as §1, §2

[3] = Biodistribution in GRANTA519 tumor-bearing mice; details: male, NOD.Cg-Rag1^tm1MomII2rg^tm1Wjl/SzJ (NRG), mouse, iv, total radioactivity
Method: as §1, §2

[4] = GRANTA519 tumour, read-out: Biodistribution GRANTA519 (tumour)
[5] = adrenals, read-out: Biodistribution Adrenals
[6] = bone, read-out: Biodistribution Bone
[7] = fat, read-out: Biodistribution Fat
[8] = intestine, read-out: Biodistribution Intestine
[9] = kidney, read-out: Biodistribution Kidney
[10] = liver, read-out: Biodistribution Liver
[11] = lung, read-out: Biodistribution Lung
[12] = muscle, read-out: Biodistribution Muscle
[13] = pancreas, read-out: Biodistribution Pancreas
[14] = spleen, read-out: Biodistribution Spleen
[15] = stomach, read-out: Biodistribution Stomach
[16] = testes, read-out: Biodistribution Testes
[17] = whole blood, read-out: Biodistribution Blood

## CC(C)NCCCC[C@@H]1NC(=O)[C@H](Cc2ccc(O)cc2)NC(=O)[C@H](Cc2ccccc2)NC(=O)CC[C@H](C(=O)N[C@@H](CCCCNC(C)C)C(=O)N[C@@H](CCCCNC(=O)[C@H](CCC(=O)O)NC(=O)[C@H](CCC(=O)O)NC(=O)[C@H](CCC(=O)O)NC(=O)CN2CCN(CC(=O)O)CCN(CC(=O)O)CCN(CC(=O)O)CC2)C(N)=O)NC(=O)CNC(=O)[C@H](Cc2ccc3ccccc3c2)NC(=O)[C@@H](CCCNC(=N)N)NC1=O [[^177Lu]Lu-BL02, metal not drawn] (FY[Lys(iPr)][dR][2Nal]G[dE][Lys(iPr)]K([Glu-Glu-Glu-DOTA])-NH2; lactam N-7)
[1]; 1 h
  tissue uptake at 1 h: 0.56 %ID/g
[1]; 1 h blocked
  tissue uptake at 1 h: 0.56 %ID/g
[1]; 4 h
  tissue uptake at 4 h: 0.33 %ID/g
[1]; 24 h
  tissue uptake at 24 h: 0.277 %ID/g
[1]; 72 h
  tissue uptake at 72 h: 0.288 %ID/g
[2]; 1 h
  Ratio Tumour:Blood: 14.18
  Ratio Tumour:Bone: 28.95
  Ratio Tumour:Liver: 7.10
  Ratio Tumour:Lung: 9.08
  Ratio Tumour:Muscle: 56.86
  Ratio Tumour:Spleen: 14.20
[2]; 1 h blocked
  Ratio Tumour:Blood: 0.77
  Ratio Tumour:Bone: 2.16
  Ratio Tumour:Liver: 0.78
  Ratio Tumour:Lung: 0.74
  Ratio Tumour:Muscle: 3.18
  Ratio Tumour:Spleen: 1.77
[2]; 4 h
  Ratio Tumour:Blood: 119.44
  Ratio Tumour:Bone: 34.26
  Ratio Tumour:Liver: 3.75
  Ratio Tumour:Lung: 12.56
  Ratio Tumour:Muscle: 90.57
  Ratio Tumour:Spleen: 11.98
[2]; 24 h
  Ratio Tumour:Blood: 206.07
  Ratio Tumour:Bone: 12.33
  Ratio Tumour:Liver: 1.72
  Ratio Tumour:Lung: 9.91
  Ratio Tumour:Muscle: 76.90
  Ratio Tumour:Spleen: 3.78
[2]; 72 h
  Ratio Tumour:Blood: 126.69
  Ratio Tumour:Bone: 5.88
  Ratio Tumour:Liver: 0.86
  Ratio Tumour:Lung: 6.60
  Ratio Tumour:Muscle: 50.64
  Ratio Tumour:Spleen: 1.53
[3]; GRANTA519 tumour, 1 h, read-out: Biodistribution GRANTA519 (tumour)
  tissue uptake at 1 h: 6.83 %ID/g
[3]; GRANTA519 tumour, 1 h blocked, read-out: Biodistribution GRANTA519 (tumour)
  tissue uptake at 1 h: 0.84 %ID/g
[3]; [4]
  tissue uptake at 4 h: 3.22 %ID/g
  tissue uptake at 24 h: 1.09 %ID/g
  tissue uptake at 72 h: 0.353 %ID/g
[3]; adrenals, 1 h, read-out: Biodistribution Adrenals
  tissue uptake at 1 h: 0.39 %ID/g
[3]; adrenals, 1 h blocked, read-out: Biodistribution Adrenals
  tissue uptake at 1 h: 0.48 %ID/g
[3]; [5]
  tissue uptake at 4 h: 0.1 %ID/g
  tissue uptake at 24 h: 0.094 %ID/g
  tissue uptake at 72 h: 0.346 %ID/g
[3]; bone, 1 h, read-out: Biodistribution Bone
  tissue uptake at 1 h: 0.24 %ID/g
[3]; [6]
  tissue uptake at 4 h: 0.09 %ID/g
  tissue uptake at 24 h: 0.09 %ID/g
  tissue uptake at 72 h: 0.061 %ID/g
[3]; bone, 1 h blocked, read-out: Biodistribution Bone
  tissue uptake at 1 h: 0.41 %ID/g
[3]; fat, 1 h, read-out: Biodistribution Fat
  tissue uptake at 1 h: 0.08 %ID/g
[3]; [7]
  tissue uptake at 4 h: 0.01 %ID/g
  tissue uptake at 24 h: 0.008 %ID/g
  tissue uptake at 72 h: 0.006 %ID/g
[3]; fat, with LY2510924 7.5 μg i.p. 15 min before radiotracer, 1 h blocked, read-out: Biodistribution Fat
  tissue uptake at 1 h: 0.16 %ID/g
[3]; heart, 1 h, read-out: Biodistribution Heart
  tissue uptake at 1 h: 0.19 %ID/g
[3]; heart, 1 h blocked, read-out: Biodistribution Heart
  tissue uptake at 1 h: 0.4 %ID/g
[3]; heart, read-out: Biodistribution Heart
  tissue uptake at 24 h: 0.034 %ID/g
[3]; intestine, 1 h, read-out: Biodistribution Intestine
  tissue uptake at 1 h: 0.28 %ID/g
[3]; intestine, 1 h blocked, read-out: Biodistribution Intestine
  tissue uptake at 1 h: 0.58 %ID/g
[3]; [8]
  tissue uptake at 24 h: 0.046 %ID/g
  tissue uptake at 72 h: 0.017 %ID/g
[3]; kidney, 1 h, read-out: Biodistribution Kidney
  tissue uptake at 1 h: 3.91 %ID/g
[3]; kidney, 1 h blocked, read-out: Biodistribution Kidney
  tissue uptake at 1 h: 8.63 %ID/g
[3]; [9]
  tissue uptake at 4 h: 2.98 %ID/g
  tissue uptake at 24 h: 1.33 %ID/g
  tissue uptake at 72 h: 0.573 %ID/g
[3]; liver, 1 h, read-out: Biodistribution Liver
  tissue uptake at 1 h: 0.96 %ID/g
[3]; [10]
  tissue uptake at 4 h: 0.87 %ID/g
  tissue uptake at 24 h: 0.635 %ID/g
  tissue uptake at 72 h: 0.413 %ID/g
[3]; liver, with LY2510924 7.5 μg i.p. 15 min before radiotracer, 1 h blocked, read-out: Biodistribution Liver
  tissue uptake at 1 h: 1.07 %ID/g
[3]; lung, 1 h, read-out: Biodistribution Lung
  tissue uptake at 1 h: 0.77 %ID/g
[3]; lung, 1 h blocked, read-out: Biodistribution Lung
  tissue uptake at 1 h: 1.16 %ID/g
[3]; [11]
  tissue uptake at 4 h: 0.27 %ID/g
  tissue uptake at 24 h: 0.117 %ID/g
  tissue uptake at 72 h: 0.06 %ID/g
[3]; muscle, 1 h, read-out: Biodistribution Muscle
  tissue uptake at 1 h: 0.13 %ID/g
[3]; muscle, 1 h blocked, read-out: Biodistribution Muscle
  tissue uptake at 1 h: 0.34 %ID/g
[3]; [12]
  tissue uptake at 4 h: 0.04 %ID/g
  tissue uptake at 24 h: 0.015 %ID/g
  tissue uptake at 72 h: 0.007 %ID/g
[3]; pancreas, 1 h, read-out: Biodistribution Pancreas
  tissue uptake at 1 h: 0.17 %ID/g
[3]; [13]
  tissue uptake at 24 h: 0.028 %ID/g
  tissue uptake at 72 h: 0.015 %ID/g
[3]; pancreas, with LY2510924 7.5 μg i.p. 15 min before radiotracer, 1 h blocked, read-out: Biodistribution Pancreas
  tissue uptake at 1 h: 0.3 %ID/g
[3]; spleen, 1 h, read-out: Biodistribution Spleen
  tissue uptake at 1 h: 0.49 %ID/g
[3]; [14]
  tissue uptake at 4 h: 0.28 %ID/g
  tissue uptake at 24 h: 0.321 %ID/g
  tissue uptake at 72 h: 0.198 %ID/g
[3]; spleen, with LY2510924 7.5 μg i.p. 15 min before radiotracer, 1 h blocked, read-out: Biodistribution Spleen
  tissue uptake at 1 h: 0.48 %ID/g
[3]; stomach, 1 h, read-out: Biodistribution Stomach
  tissue uptake at 1 h: 0.1 %ID/g
[3]; [15]
  tissue uptake at 4 h: 0.05 %ID/g
  tissue uptake at 24 h: 0.206 %ID/g
  tissue uptake at 72 h: 0.021 %ID/g
[3]; stomach, with LY2510924 7.5 μg i.p. 15 min before radiotracer, 1 h blocked, read-out: Biodistribution Stomach
  tissue uptake at 1 h: 0.19 %ID/g
[3]; testes, 1 h, read-out: Biodistribution Testes
  tissue uptake at 1 h: 0.21 %ID/g
[3]; testes, 1 h blocked, read-out: Biodistribution Testes
  tissue uptake at 1 h: 0.32 %ID/g
[3]; [16]
  tissue uptake at 24 h: 0.034 %ID/g
  tissue uptake at 72 h: 0.034 %ID/g
[3]; whole blood, 1 h, read-out: Biodistribution Blood
  tissue uptake at 1 h: 0.5 %ID/g
[3]; [17]
  tissue uptake at 4 h: 0.02 %ID/g
  tissue uptake at 24 h: 0.006 %ID/g
  tissue uptake at 72 h: 0.002 %ID/g
[3]; whole blood, with LY2510924 7.5 μg i.p. 15 min before radiotracer, 1 h blocked, read-out: Biodistribution Blood
  tissue uptake at 1 h: 1.14 %ID/g
